The test system of data set [1] is Musca domestica. The data set can be described thus: Toxicity in male house fly assessed as lowest dose required to cause complete sterility administered in food. Type of data set: organism-based. As to conditions: in vivo, po.
Data set [2] deals with Musca domestica. Briefly: Toxicity in male house fly assessed as lowest dose required to cause complete sterility administered in sugar. It counts as organism-based. Particulars: in vivo, po.
Data set [3] in a line: Antitumor activity against rat Lewis-Lymphoma 8 cells allografted in Lewis-Wistar rat assessed as tumor regression at 20 mg/kg, ip administered for 2 weeks measured for 9 to 10 months relative to control. It counts as functional. Particulars: route intraperitoneal.

Each structure is given as a SMILES string.

As for `C=CCN(C1=CCCCC1)P(=O)(N1CC1)N1CC1`, the Activity with Musca domestica [1] and in the data set on Musca domestica [2] was 1% each time.
Consider `C=CCN(CC=C)C(CN1CC1)C(N)=O` (stereo not drawn), for which, in data set [3], the Activity came out at 100%.
